From ChEMBL document CHEMBL5247656, “Discovery of a Potent, Cooperative, and Selective SOS1 PROTAC ZZ151 with In Vivo Antitumor Efficacy in KRAS-Mutant Cancers” (J Med Chem, 2023) come the findings set out here.

The source made the active and inactive calls. No cut-off for these calls is given here.

In data set [1] the target is T1, von Hippel-Lindau disease tumor suppressor/Son of sevenless homolog 1 (Homo sapiens) (UniProt Q07889+P40337). The experiment in a line: PROTAC activity at VHL/SOS1 in human SK-LU-1 cells harboring KRAS G12D mutant assessed as induction of SOS1 degradation by measuring maximal efficacy at 1 to 2000 nM incubated for 24 hrs by Immunoblot analysis relative to control. Type of data set: cell-based. To be noted: dose 1-2000 nM. A general note: In western blotting, separated proteins are transferred to a membrane and probed.
T1 sequence (P40337 whole entry, looked up, one chain of several): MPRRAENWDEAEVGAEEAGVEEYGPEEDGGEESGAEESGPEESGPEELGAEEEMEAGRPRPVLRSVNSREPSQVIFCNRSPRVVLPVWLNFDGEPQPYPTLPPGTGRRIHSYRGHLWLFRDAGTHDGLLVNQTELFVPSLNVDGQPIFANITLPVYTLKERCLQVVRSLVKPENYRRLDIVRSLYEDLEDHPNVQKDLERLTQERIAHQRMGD

The target in data set [2] is T1, von Hippel-Lindau disease tumor suppressor/Son of sevenless homolog 1 (Homo sapiens). Nature of the data set: PROTAC activity at VHL/SOS1 in human ASPC1 cells harboring KRAS G12D mutant assessed as induction of SOS1 degradation at 1 uM incubated for 2 to 4 hrs by Immunoblot analysis. Type of data set: cell-based. To be noted: time 2-4 hrs.
The target is the same in data set [3]. The experiment in a line: PROTAC activity at VHL/SOS1 in human HCT-116 cells harboring KRAS G13D mutant assessed as induction of SOS1 degradation at 1 uM incubated for 2 to 4 hrs by Immunoblot analysis. To be noted: time 2-4 hrs. Format: cell-based.
The target is the same in data set [4]. Nature of the data set: PROTAC activity at VHL/SOS1 in human NCI-H441 cells harboring KRAS G12V mutant assessed as induction of SOS1 degradation by measuring maximal efficacy at 1 to 2000 nM incubated for 24 hrs by Immunoblot analysis relative to control. Format: cell-based. As to conditions: dose 1-2000 nM.
The test system of data set [5] is ASPC1. The experiment in a line: Antitumor activity against human ASPC1 cells harboring KRAS G12D mutant xenografted in BALB/c nude mouse assessed as tumor growth inhibition at 20 mg/kg, ip administered once daily for 3 weeks relative to control. To be noted: ASPC1, 504 h, read-out: TGI. Format: functional.
Data set [6] is described as follows: Half-life in BALB/c mouse at 10 mg/kg, ip measured upto 24 hrs by LC-MS/MS analysis. As to conditions: in vivo. Type of data set: ADME, organism-based.
The subject of data set [7] is PANC-1. The experiment in a line: Antiproliferative activity against human PANC-1 cells harboring KRAS G12D mutant assessed as inhibition of cell proliferation incubated for 7 days by CellTiterGlo-3D proliferation assay. Format: functional, cell-based. As to conditions: PANC-1, 168 h. Background: In ATP-based viability assays light output follows the ATP content of the culture.

Data set [8] deals with LoVo. Nature of the data set: Antiproliferative activity against human LoVo cells harboring KRAS G13D mutant assessed as inhibition of cell proliferation incubated for 7 days by CellTiterGlo-3D proliferation assay. Format: functional, cell-based. To be noted: 168 h.
Data set [9] addresses T2, Son of sevenless homolog 1 (Homo sapiens, UniProt Q07889).
T2 sequence (Q07889 whole entry): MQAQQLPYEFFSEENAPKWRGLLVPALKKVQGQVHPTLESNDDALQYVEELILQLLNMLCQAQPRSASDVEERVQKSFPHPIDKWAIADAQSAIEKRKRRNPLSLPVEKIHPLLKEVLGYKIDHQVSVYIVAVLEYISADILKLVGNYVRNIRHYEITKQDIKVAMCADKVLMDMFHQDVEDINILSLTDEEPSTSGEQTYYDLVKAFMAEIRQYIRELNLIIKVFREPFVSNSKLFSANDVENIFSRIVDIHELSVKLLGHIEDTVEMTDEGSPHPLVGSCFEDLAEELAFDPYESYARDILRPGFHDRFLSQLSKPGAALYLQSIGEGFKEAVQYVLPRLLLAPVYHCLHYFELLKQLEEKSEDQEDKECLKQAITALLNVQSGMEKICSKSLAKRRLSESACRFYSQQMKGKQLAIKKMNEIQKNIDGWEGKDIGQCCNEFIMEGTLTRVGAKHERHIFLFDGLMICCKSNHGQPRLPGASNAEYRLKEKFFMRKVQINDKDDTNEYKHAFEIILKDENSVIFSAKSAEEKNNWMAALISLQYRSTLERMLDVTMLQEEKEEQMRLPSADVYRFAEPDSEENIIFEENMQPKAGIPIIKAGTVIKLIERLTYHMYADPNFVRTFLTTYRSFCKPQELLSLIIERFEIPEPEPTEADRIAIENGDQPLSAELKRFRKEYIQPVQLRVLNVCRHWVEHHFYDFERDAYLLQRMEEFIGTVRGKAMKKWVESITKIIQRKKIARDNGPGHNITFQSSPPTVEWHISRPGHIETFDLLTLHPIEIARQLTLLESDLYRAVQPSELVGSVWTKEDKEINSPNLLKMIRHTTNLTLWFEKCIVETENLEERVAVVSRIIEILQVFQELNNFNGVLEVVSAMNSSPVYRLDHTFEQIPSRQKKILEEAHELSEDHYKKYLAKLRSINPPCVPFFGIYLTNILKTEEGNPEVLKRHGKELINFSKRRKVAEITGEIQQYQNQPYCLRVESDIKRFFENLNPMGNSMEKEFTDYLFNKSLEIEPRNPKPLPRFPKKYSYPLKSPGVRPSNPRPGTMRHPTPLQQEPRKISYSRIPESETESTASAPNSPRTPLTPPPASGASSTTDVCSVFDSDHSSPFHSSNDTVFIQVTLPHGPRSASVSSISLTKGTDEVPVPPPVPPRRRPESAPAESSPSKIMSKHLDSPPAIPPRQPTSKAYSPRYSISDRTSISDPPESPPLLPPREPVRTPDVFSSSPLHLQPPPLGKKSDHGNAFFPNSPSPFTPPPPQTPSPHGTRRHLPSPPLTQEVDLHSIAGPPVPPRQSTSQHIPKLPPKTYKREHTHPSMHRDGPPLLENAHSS
The experiment in a line: Binding affinity to GST-tagged human SOS1 (564 to 1049 residues) expressed in Escherichia coli BL21 (DE3) cells assessed as binary complex formation by measuring dissociation constant incubated for 15 mins by fluorescence polarization-based displacement assay. A general note: Fluorescence polarisation rises when a labelled molecule tumbles more slowly, as on binding a larger partner.

Data set [10] deals with T1, von Hippel-Lindau disease tumor suppressor/Son of sevenless homolog 1 (Homo sapiens). The experiment in a line: PROTAC activity at VHL/SOS1 in human NCI-H358 cells harboring KRAS G12C mutant assessed as induction of SOS1 degradation at 1 uM preincubated with VHL ligand for 4 hrs followed by compound treatment and measured after 24 hrs by Immunoblot analysis. Format: cell-based.

The target is the same in data set [11]. The experiment in a line: In vivo PROTAC activity at VHL/SOS1 in human ASPC1 cells harboring KRAS G12D mutant xenografted BALB/c nude mouse assessed as decrease in phosphorylated ERK expression at 10 to 20 mg/kg, ip administered once daily for 3 weeks by immunohistochemistry analysis. Format: functional, organism-based. To be noted: dose 10-20 mg/kg.
The target is the same in data set [12]. The experiment in a line: PROTAC activity at VHL/SOS1 in human HPAF-II cells harboring KRAS G12D mutant assessed as induction of SOS1 degradation by measuring maximal efficacy at 1 to 2000 nM incubated for 24 hrs by Immunoblot analysis relative to control. Type of data set: cell-based. As to conditions: dose 1-2000 nM.
Data set [13] relates to A549. The experiment in a line: Antiproliferative activity against human A549 cells harboring KRAS G12S mutant assessed as inhibition of cell proliferation incubated for 7 days by CellTiterGlo-3D proliferation assay. To be noted: A549, 168 h. Format: functional, cell-based.
In data set [14] the test system is ASPC1. The experiment in a line: Antiproliferative activity against human ASPC1 cells harboring KRAS G12D mutant assessed as inhibition of cell proliferation incubated for 7 days by CellTiterGlo-3D proliferation assay. Type of data set: functional, cell-based. As to conditions: ASPC1, 168 h.
Data set [15] is described as follows: Acute toxicity in BALB/c mouse assessed as body weight loss at 12.5 to 100 mg/kg, ip administered once daily for 7 days. Format: organism-based. To be noted: in vivo, 168 h, dose 12.5-100 mg/kg, time 7 day.

By Emax is commonly meant the maximal effect, on the per cent scale that the assay sets. By half-life is commonly meant how long it takes for the measured level to halve. A lower half-life goes with fast loss. As usually defined, the IC50 is the concentration that gives 50% inhibition. What is called Kd is the free concentration of one partner at which half of the binding sites on the other are occupied at equilibrium, for simple one-to-one binding. `COc1cc2nc(C)nc(N[C@H](C)c3cc(N)cc(C(F)(F)F)c3)c2cc1C1CCN(C(=O)CCCCCC(=O)N[C@H](C(=O)N2C[C@H](O)C[C@H]2C(=O)N[C@@H](C)c2ccc(-c3scnc3C)cc2)C(C)(C)C)CC1`: the Emax in [1], in data set [4] and in data set [12] was more than 95% each time. Moreover, the outcome in data set [2], in data set [3] and in data set [11] was Active. The inhibition in vivo at 20 mg/kg in [5] turned out to be 70.2%. In addition, the half-life in data set [6] was 9.69 h. Further, the IC50 in data set [7] came out at 13.8 nM; in [8], 44.5 nM; in [13], 105 nM; in [14], 6.97 nM. Moreover, the Kd in data set [9] came to 93 nM. Also, in data set [10], the result was inactive. The Activity entry in [15] is “Non-Toxic”.
